How the values were obtained:
Format in all cases: in vivo
[1] = test system: corn hybrid B73 X Mo17; assay: Greenhouse study Long Grove, Ill., sprayed at V1-V2, change in height and synergy (Example 7); conditions: for Change in height from day of treatment, 2 days post treatment: control 9.74; for Change in height from day of treatment, 4 days post treatment: control 22.59; for Change in height from day of treatment, 6 days post treatment: control 43.03; for Height of the corn compared to the control (in words): applied alone
Procedure: A greenhouse study was conducted at Long Grove, Ill. Seeds of the corn hybrid B73 X Mo17 was sown into potted soil on May 7, 2014. Plants were sprayed at 11 days post sowing (V1-V2) with solutions containing a non-ionic surfactant (0.25%, v/v) and growth was followed for 6 days. GA3 refers to gibberellic acid and ABA refers to abscisic acid. Results of the study described in 3. above can be seen in the following tables describing change in height in centimeters from day of treatment (Table 8) and change in height in centimeters from day of treatment compared to control (Table 9).
Synergy is calculated as follows: […]
Observed difference in height from control/Expected difference in height from control, where expected difference in height from control is the sum of the observed difference in height of each active ingredient applied alone. If the ratio between the experimentally observed efficacy of the mixture and the expected efficacy of the mixture is greater than 1, than synergistic interactions are present in the mixture.

[2] = test system: Hybrid 1 and Hybrid 2 corn; assay: Field study Woodstock, Ill., sprayed at V2, shoot height (Examples 4 and 8); conditions: for Growth response to spray treatment (in words): sprayed at V2
Procedure: (§1) A field study was conducted at Woodstock, Ill. Seeds of two commercial varieties were sown: Hybrid 1 was northern corn belt variety with 100 days to maturity, while Hybrid 2 was a central corn belt variety with 111 days to maturity. Corn of these two varieties was sown into cool soil on May 7, 2014. Plants were sprayed at V2 with solutions containing a non-ionic surfactant (0.25%, v/v) at 15 gallons of spray solution/acre and growth was followed for 14 days. At seven days and 14 days after treatment shoot heights in centimeters were measured for 60 plants in each replicate.
as §1, with “GA3 refers to gibberellic acid” for “At seven days”, “ABA refers to abscisic acid. Results of the study are found in Table 10 below describing” for “14 days after treatment”, “height” for “heights”, “centimeters.” for “centimeters were measured for 60 plants in each replicate.”

[3] = test system: Hybrid 1, Hybrid 2 and Hybrid 3 corn; assay: Long Grove, Ill., sprayed at V4, distance of growing point relative to soil surface (Examples 6 and 10); conditions: for Distance of the growing point relative to the soil surface, 7 days post treatment / Distance of the growing point relative to the soil surface, 13 days post treatment / Distance of the growing point relative to the soil surface, 20 days post treatment / Distance of the growing point relative to the soil surface, 4 days post treatment: Table 7; for Distance of growing point relative to soil surface, 7 days post treatment / Distance of growing point relative to soil surface, 13 days post treatment / Distance of growing point relative to soil surface, 20 days post treatment / Distance of growing point relative to soil surface, 4 days post treatment: Table 12
Procedure: In this example, seeds of three varieties were sown at Long Grove, Ill. and were grown under similar conditions as in Examples 3 to 6. Three hybrid corn varieties were grown, Hybrid 1 and 2 as above, and Hybrid 3 which was another central corn belt variety requiring 111 days to maturity.
At the early V-stages, the growing point of the corn stem is below the soil surface and emerges from the soil when the plants are at V5 or later, depending on the variety. In spring, the soil is generally cooler than the air temperature. Therefore, there would be an advantage to getting the growing point above the soil surface to facilitate faster growth.
The plants were sprayed at the V4 growth stage. Plants were dug from the ground at days after spray. Stems of five plants per replicate, three replicates per treatment were split and the distance of the growing point relative to the soil surface was determined in mm.
Seeds of three varieties were sown at Long Grove, Ill. and were grown under similar conditions as in Example 8, above. Three hybrid corn varieties were grown, Hybrid 1 and 2 as described in Examples 8 and 9, above, and Hybrid 3 which was another central corn belt variety requiring 111 days to maturity. The plants were sprayed at the V4 growth stage. Plants were dug from the ground at days after spray. Stems of five plants per replicate, three replicates per treatment were split and the distance of the growing point relative to the soil surface was determined in mm. Results of this study are found in Table 12, below, describing distance of growing point relative to soil surface in millimeters.

[4] = test system: Hybrid 1 and Hybrid 2 corn; assay: Field study, sprayed at V4, plant height (Examples 5 and 9)
Procedure: This study was conducted and the data analyzed as described above in Example 3 with the following the exceptions. The plants were sprayed at the V4 stage and plant height was measured at seven and 13 days post treatment.
Another study was conducted and the data analyzed as described Example 8, above, with the following the exceptions. The plants were sprayed at the V4 stage and plant height was measured at seven and 13 days post treatment. Results of this study are found in Table 11, below, describing shoot height in centimeters.

[5] = test system: Hybrid corn; assay: Corn trial under conventional tillage, Lozada, Argentina, sprayed at V3, yield at harvest (Example 3); conditions: for Yield difference from control treatment: difference of the Yield (kg/ha) column; for Yield: untreated 3840
Source text: In a corn trial under conventional tillage in Lozada, Argentina, hybrid corn was planted and sprayed at 16 days post-planting at the V3 growth stage.

[6] = test system: Hybrid corn; assay: Final yield, field, Chabás, Santa Fe, Argentina (Example 1); conditions: untreated 8096
[7] = test system: Hybrid corn; assay: Vigor rating after foliar treatment at V2, field, Chabás, Santa Fe, Argentina (Example 1); conditions: 1 to 9 scale (untreated=5.0)
Procedure: Hybrid corn was grown under conventional tillage in Chabás, Santa Fe, Argentina. At V2 growth stage, GA3 or a combination of GA3 and ABA was applied as a foliar treatment. Vigor was rated on a 1 to 9 scale (untreated=5.0) following spray applications at the times specified in Table 1.

[8] = GA3 16 g/ha, mixtures plus ABA as labelled
[9] = GA3 120 ppm, mixtures plus ABA 12 (10:1), 10 (12:1) or 8.6 ppm (14:1)

CC1=CC(=O)CC(C)(C)[C@@]1(O)/C=C/C(C)=C\C(=O)O [ABA, abscisic acid]
Observed change in height from day of treatment compared to control, 2 days post treatment ([1]; ABA 8.6 ppm alone): −0.17 cm | Observed change in height from day of treatment compared to control, 4 days post treatment ([1]; ABA 8.6 ppm alone): −0.72 cm | Observed change in height from day of treatment compared to control, 6 days post treatment ([1]; ABA 8.6 ppm alone): −1.37 cm | Change in height from day of treatment, 2 days post treatment ([1]; ABA 8.6 ppm alone): 9.57 cm | Change in height from day of treatment, 4 days post treatment ([1]; ABA 8.6 ppm alone): 21.87 cm | Change in height from day of treatment, 6 days post treatment ([1]; ABA 8.6 ppm alone): 41.66 cm | Observed change in height from day of treatment compared to control, 2 days post treatment ([1]; ABA 10 ppm alone): −0.11 cm | Observed change in height from day of treatment compared to control, 4 days post treatment ([1]; ABA 10 ppm alone): −0.15 cm | Observed change in height from day of treatment compared to control, 6 days post treatment ([1]; ABA 10 ppm alone): −0.33 cm | Change in height from day of treatment, 2 days post treatment ([1]; ABA 10 ppm alone): 9.63 cm | Change in height from day of treatment, 4 days post treatment ([1]; ABA 10 ppm alone): 22.44 cm | Change in height from day of treatment, 6 days post treatment ([1]; ABA 10 ppm alone): 42.70 cm | Observed change in height from day of treatment compared to control, 2 days post treatment ([1]; ABA 12 ppm alone): 0.75 cm | Observed change in height from day of treatment compared to control, 4 days post treatment ([1]; ABA 12 ppm alone): −0.49 cm | Observed change in height from day of treatment compared to control, 6 days post treatment ([1]; ABA 12 ppm alone): 0 cm | Change in height from day of treatment, 2 days post treatment ([1]; ABA 12 ppm alone): 10.49 cm | Change in height from day of treatment, 4 days post treatment ([1]; ABA 12 ppm alone): 22.10 cm | Change in height from day of treatment, 6 days post treatment ([1]; ABA 12 ppm alone): 43.03 cm | Height of the corn compared to the control (in words) ([1]; at both 4 and 6 days post treatment): either did not increase or decreased the height

C=C1C[C@]23C[C@@]1(O)CC[C@H]2[C@@]12C=C[C@H](O)[C@@](C)(C(=O)O1)[C@H]2[C@@H]3C(=O)O [GA3, gibberellic acid]
Shoot height, 7 days post treatment ([2]; Hybrid 1, Table 5, control 0:0 37.75): 36.07 cm | Shoot height, 14 days post treatment ([2]; Hybrid 1, Table 5, control 0:0 57.90): 57.08 cm | Shoot height, 7 days post treatment ([2]; Hybrid 1, Table 10, control 0:0 37.75): 36.07 cm | Shoot height, 14 days post treatment ([2]; Hybrid 1, Table 10, control 0:0 57.90): 57.08 cm | Growth response to spray treatment (in words) ([2]; Hybrid 1): did not respond | Shoot height, 7 days post treatment ([2]; Hybrid 2, Table 5, control 0:0 29.56): 31.33 cm | Shoot height, 14 days post treatment ([2]; Hybrid 2, Table 5, control 0:0 50.16): 51.20 cm | Shoot height, 7 days post treatment ([2]; Hybrid 2, Table 10, control 0:0 29.56): 31.33 cm | Shoot height, 14 days post treatment ([2]; Hybrid 2, Table 10, control 0:0 50.16): 51.20 cm | Growth response to spray treatment (in words) ([2]; Hybrid 2): growth increased | Distance of the growing point relative to the soil surface, 7 days post treatment ([3]; Hybrid 1, control 0:0 17.47): 34.53 mm | Distance of the growing point relative to the soil surface, 13 days post treatment ([3]; Hybrid 1, control 0:0 166.40): 163.27 mm | Distance of the growing point relative to the soil surface, 20 days post treatment ([3]; Hybrid 1, control 0:0 644.00): 603.80 mm | Distance of the growing point relative to the soil surface, 4 days post treatment ([3]; Hybrid 1, control 0:0 −1.13): 4.20 mm | Distance of growing point relative to soil surface, 7 days post treatment ([3]; Hybrid 1, control 0:0 17.47): 34.53 mm | Distance of growing point relative to soil surface, 13 days post treatment ([3]; Hybrid 1, control 0:0 166.40): 163.27 mm | Distance of growing point relative to soil surface, 20 days post treatment ([3]; Hybrid 1, control 0:0 644.00): 603.80 mm | Distance of growing point relative to soil surface, 4 days post treatment ([3]; Hybrid 1, control 0:0 −1.13): 4.20 mm | Distance of the growing point relative to the soil surface, 4 days post treatment ([3]; Hybrid 2, control 0:0 0.80): 1.87 mm | Distance of the growing point relative to the soil surface, 7 days post treatment ([3]; Hybrid 2, control 0:0 18.80): 24.07 mm | Distance of the growing point relative to the soil surface, 13 days post treatment ([3]; Hybrid 2, control 0:0 128.87): 130.93 mm | Distance of the growing point relative to the soil surface, 20 days post treatment ([3]; Hybrid 2, control 0:0 517.13): 515.53 mm | Distance of growing point relative to soil surface, 4 days post treatment ([3]; Hybrid 2, control 0:0 0.80): 1.87 mm | Distance of growing point relative to soil surface, 7 days post treatment ([3]; Hybrid 2, control 0:0 18.80): 24.07 mm | Distance of growing point relative to soil surface, 13 days post treatment ([3]; Hybrid 2, control 0:0 128.87): 130.93 mm | Distance of growing point relative to soil surface, 20 days post treatment ([3]; Hybrid 2, control 0:0 517.13): 515.53 mm | Distance of the growing point relative to the soil surface, 4 days post treatment ([3]; Hybrid 3, control 0:0 0.53): 3.67 mm | Distance of the growing point relative to the soil surface, 7 days post treatment ([3]; Hybrid 3, control 0:0 25.60): 27.87 mm | Distance of the growing point relative to the soil surface, 13 days post treatment ([3]; Hybrid 3, control 0:0 147.73): 164.67 mm | Distance of the growing point relative to the soil surface, 20 days post treatment ([3]; Hybrid 3, control 0:0 619.33): 653.53 mm | Distance of growing point relative to soil surface, 4 days post treatment ([3]; Hybrid 3, control 0:0 0.53): 3.67 mm | Distance of growing point relative to soil surface, 7 days post treatment ([3]; Hybrid 3, control 0:0 25.60): 27.87 mm | Distance of growing point relative to soil surface, 13 days post treatment ([3]; Hybrid 3, control 0:0 147.73): 164.67 mm | Distance of growing point relative to soil surface, 20 days post treatment ([3]; Hybrid 3, control 0:0 619.33): 653.53 mm | Plant height, 7 days post treatment ([4]; Hybrid 1, Table 6, control 0:0 76.50): 78.60 cm | Plant height, 13 days post treatment ([4]; Hybrid 1, Table 6, control 0:0 117.61): 116.44 cm | Shoot height, 7 days post treatment ([4]; Hybrid 1, Table 11, control 0:0 76.50): 78.60 cm | Shoot height, 13 days post treatment ([4]; Hybrid 1, Table 11, control 0:0 117.61): 116.44 cm | Plant height, 7 days post treatment ([4]; Hybrid 2, Table 6, control 0:0 63.76): 68.25 cm | Plant height, 13 days post treatment ([4]; Hybrid 2, Table 6, control 0:0 98.71): 102.40 cm | Shoot height, 7 days post treatment ([4]; Hybrid 2, Table 11, control 0:0 63.76): 68.25 cm | Shoot height, 13 days post treatment ([4]; Hybrid 2, Table 11, control 0:0 98.71): 102.40 cm | Yield difference from control treatment ([5]; GA3 8 g/ha): 370 | Yield ([5]; GA3 8 g/ha): 4210 kg/ha | Yield difference from control treatment [5, 8]: 345 | Yield [5, 8]: 4185 kg/ha | Observed change in height from day of treatment compared to control, 2 days post treatment [1, 9]: 3.13 cm | Observed change in height from day of treatment compared to control, 4 days post treatment [1, 9]: 4.97 cm | Observed change in height from day of treatment compared to control, 6 days post treatment [1, 9]: 7.21 cm | Change in height from day of treatment, 2 days post treatment [1, 9]: 12.87 cm | Change in height from day of treatment, 4 days post treatment [1, 9]: 27.56 cm | Change in height from day of treatment, 6 days post treatment [1, 9]: 50.24 cm | Height of the corn compared to the control (in words) ([1]; Tables 8 and 9): increased the height | Yield ([6]; GA3 8 g/ha): 8355 kg/ha | Yield [6, 8]: 8769 kg/ha | Vigor 3 d post-spraying ([7]; GA3 8 g/ha): 5.2 | Vigor 7 d post-spraying ([7]; GA3 8 g/ha): 5.3 | Vigor 15 d post-spraying ([7]; GA3 8 g/ha): 5.5 | Vigor 3 d post-spraying [7, 8]: 5.5 | Vigor 7 d post-spraying [7, 8]: 5.6 | Vigor 15 d post-spraying [7, 8]: 6.0

— patent publication US20190223443A1, “Methods to Increase Corn Growth” (Valent BioSciences LLC, priority 2015, published 2019)
